Values of other authors in patent publication US20200197364A1, “DIHYDROMYRICETIN NANOPARTICLE FORMULATIONS” (priority 2017, published 2020).

Key:
[1] = in vivo
[2] = data collected by EPA
[3] = through intestinal mucosa

SMILES: O=C1c2c(O)cc(O)cc2O[C@H](c2cc(O)c(O)c(O)c2)[C@H]1O [DHM, Dihydromyricetin]
- Oral bioavailability [1]: less than 5%
- Log P [2]: approximately 1.31
- Permeability [3]: low
